This assay addresses T1, His-p53 Y220C (94-294) protein (Homo sapiens, UniProt P04637, Y220C).
T1 construct: His-p53 Y220C (94-294) protein
Briefly: In vitro DNA binding assay (HTRF). It is filed as biochemical. The note with it: % activation normalized to 2 μM Ref-1a high control.

Regarding `CN1CC[C@H](Nc2cccc3c(CC(F)(F)F)c(C#CCNc4ccc(S(N)(=O)=O)cc4)sc23)[C@H](F)C1` (racemic) [Example 5, 4-((3-(7-(((3R,4S)-3-fluoro-1-methylpiperidin-4-yl)amino)-3-(2,2,2-trifluoroethyl)benzo[b]thiophen-2-yl)prop-2-yn-1-yl)amino)benzenesulfonamide], the EC50 was determined as 32 nM. This counts as double-digit nanomolar.
The value for `COc1cc(C(=O)NC2CCN(C)CC2)ccc1NCC#Cc1sc2c(NC3CCN(C)CC3F)cccc2c1CC(F)(F)F` (racemic) [Example 47, 4-((3-(7-((3-fluoro-1-methylpiperidin-4-yl)amino)-3-(2,2,2-trifluoroethyl)benzo[b]thiophen-2-yl)prop-2-yn-1-yl)amino)-3-methoxy-N-(1-methylpiperidin-4-yl)benzamide] was 20 nM; that for `COc1cc(C(=O)N2CCS(=O)(=O)CC2)ccc1NCC#Cc1sc2c(N[C@H]3CCN(C)C[C@H]3F)cccc2c1CC(F)(F)F` (racemic) [Example 48, (1,1-dioxidothiomorpholino)(4-((3-(7-(((3R,4S)-3-fluoro-1-methylpiperidin-4-yl)amino)-3-(2,2,2-trifluoroethyl)benzo[b]thiophen-2-yl)prop-2-yn-1-yl)amino)-3-methoxyphenyl)methanone] was 84 nM.
The result for `COc1cc2c(cc1NCC#Cc1sc3c(N[C@@H]4CCN(C)C[C@@H]4F)cccc3c1CC(F)(F)F)CNS2(=O)=O` (racemic) [Example 77, 5-((3-(7-(((Z)-3-fluoro-1-methylpiperidin-4-yl)amino)-3-(2,2,2-trifluoroethyl)benzo[b]thiophen-2-yl)prop-2-yn-1-yl)amino)-6-methoxy-2,3-dihydrobenzo[d]isothiazole 1,1-dioxide] reads 904 nM.
The value for `COCCN1CC[C@@H](Nc2cccc3c(CC(F)(F)F)c(C#CCNc4ccc(P(C)(C)=O)cc4OC)sc23)[C@@H](F)C1` (racemic) [Example 88, (4-((3-(7-(((Z)-3-fluoro-1-(2-methoxyethyl)piperidin-4-yl)amino)-3-(2,2,2-trifluoroethyl)benzo[b]thiophen-2-yl)prop-2-yn-1-yl)amino)-3-methoxyphenyl)dimethylphosphine oxide] was 404 nM; that for `CNC(=O)c1ccc(NCC#Cc2sc3c(N[C@@H]4CCN(C)C[C@@H]4F)cccc3c2CC(F)(F)F)c(C#N)c1` (racemic) [Example 95, 3-cyano-4-((3-(7-(((Z)-3-fluoro-1-methylpiperidin-4-yl)amino)-3-(2,2,2-trifluoroethyl)benzo[b]thiophen-2-yl)prop-2-yn-1-yl)amino)-N-methylbenzamide] was 133 nM; that for `CCN1CC[C@@H](Nc2cccc3c(CC(F)(F)F)c(C#CCNc4ccc(P(C)(C)=O)cc4OC)sc23)[C@@H](F)C1` (racemic) [Example 100, (4-((3-(7-(((Z)-1-ethyl-3-fluoropiperidin-4-yl)amino)-3-(2,2,2-trifluoroethyl)benzo[b]thiophen-2-yl)prop-2-yn-1-yl)amino)-3-methoxyphenyl)dimethylphosphine oxide] was 40 nM.
For `COc1cc(P(C)(C)=O)ccc1OCC#Cc1sc2c(N[C@@H]3CCN(C)C[C@@H]3F)cccc2c1CC(F)(F)F` (racemic) [Example 123, (4-((3-(7-(((Z)-3-fluoro-1-methylpiperidin-4-yl)amino)-3-(2,2,2-trifluoroethyl)benzo[b]thiophen-2-yl)prop-2-yn-1-yl)oxy)-3-methoxyphenyl)dimethylphosphine oxide], the midpoint of the response, the EC50, lay at 147 nM. This EC50 is about 3.7-fold higher than that of the compound before.
On to `COc1cc(P(C)(C)=O)ccc1NCC#Cc1sc2c(N[C@H]3CCN(C)C[C@@H]3F)cccc2c1-c1ccc(F)cc1` (racemic) [Example 139, (4-((3-(7-(((E)-3-fluoro-1-methylpiperidin-4-yl)amino)-3-(4-fluorophenyl)benzo[b]thiophen-2-yl)prop-2-yn-1-yl)amino)-3-methoxyphenyl)dimethylphosphine oxide], for which it took 1220 nM to reach a half-maximal effect (EC50).

(Values after patent US20240400591A1 (Jacobio Pharmaceuticals Co., Ltd., priority 2021, published 2024).)
